Assays:
[1] = tested on: Brassica napus (winter rape, species Bristol); assay: Field trial of treated oilseed rape seed: plant biomass (determining the weight); format: in vivo; settings: for Plant biomass (% - relative to untreated): standard treatment agent, rate not given, winter rape Bristol, untreated = 100
Procedure: (§1) The seed treated in accordance with the production examples described above was tested in field trials at a sowing rate of 4 kg per hectare. The individual test parameters were evaluated using the methods usually used in practice in each case, such as determining the weight for plant biomass and grading in the event of fungal infestation.
(§2) The increase in the plant biomass and the suppression of fungal infestation in both the exemplary embodiments of treatment of oilseed rape seed with fluquinconazole is higher compared with the untreated control and compared with the active substance dimethomorph which was co-tested as a reference and is used as the standard treatment agent in oilseed rape for protection against downy mildew.

downy mildew = assay: Field trial of treated oilseed rape seed: foliar infestation with downy mildew (grading); format: in vivo, Brassica napus; settings: 24 days after sowing; standard treatment agent, rate not given; winter rape Bristol; untreated = 15
Procedure: as §1, §2

[2] = tested on: Fungal infestation of the leaves; assay: Field trial of treated oilseed rape seed: fungal infestation of the leaves (grading); format: in vivo, Brassica napus
Procedure: as §1, §2

[3] = tested on: Brassica napus (winter rape, species Express); assay: Field trial of treated oilseed rape seed: yield; format: in vivo; settings: seed treatment; independent of the site
Procedure: as §1
The yield after a period of vegetation is higher after treatment of the oilseed rape seed with fluquinconazole compared with the untreated control. This effect is independent of the site.

[4] = seed treatment, both exemplary embodiments

Row | SMILES | Plant biomass (% - relative to untreated) ([1]; 24 days after sowing) [%] | Plant biomass (% - relative to untreated) ([1]; 41 days after sowing) [%] | Foliar infestation with downy mildew (% total infestation) (downy mildew) | Fungal infestation of the leaves (% total infestation) ([2]; 41 days after sowing, standard treatment agent, rate not given, winter rape Bristol, untreated = 30) | Yield after a period of vegetation compared with the untreated control [3] | Increase in the plant biomass compared with the untreated control and with dimethomorph [1, 4] | Suppression of fungal infestation compared with the untreated control and with dimethomorph [2, 4]
1 | COc1ccc(C(=CC(=O)N2CCOCC2)c2ccc(Cl)cc2)cc1OC [Dimethomorph] | 105 | 102 | 5 | 25 |  |  | 
2 | O=c1c2cc(F)ccc2nc(-n2cncn2)n1-c1ccc(Cl)cc1Cl [fluquinconazole, 3-(2,4-dichlorophenyl)-6-fluoro-2-(1H-1,2,4-triazol-1-yl)-quinazolin-4(3H)-one] |  |  |  |  | higher | higher | higher

— US20050181947A1, “Fungicidal seed treatment agent for oilseed rape” (BASF Agro BV., Amhem (NL)-Wadenswil-Branch, priority 2002, published 2005)
